We go through 24 molecules from ChEMBL document CHEMBL4665776, “Design, synthesis and SAR study of novel C2-pyrazolopyrimidine amides and amide isosteres as allosteric integrase inhibitors” (Bioorg Med Chem Lett, 2020).

Data set [1] can be described thus: Displacement of [3H]2-tert-butoxy-2-(2-methyl-4-p-tolylquinolin-3-yl)acetic acid from LEDGF binding site of HIV1 integrase. Also noted: species or system Human immunodeficiency virus 1. On the technique in general: Displacement assays read how much labelled ligand stays bound in the presence of the test substance.
Data set [2] is described as follows: Cytotoxicity against human MT2 cells. Type of data set: cell-based.
For data set [3], the system named is Human immunodeficiency virus 1. The data set is described as follows: Antiviral activity against wild type HIV-1 NL4-3 in human MT2 cells assessed as inhibition of viral out growth replication by HIV1 infectivity assay. It counts as functional, organism-based. The following applies: Human immunodeficiency virus 1, NL4-3, MT2.
For data set [4], the system named is Human immunodeficiency virus 1. As to the kind of experiment: Antiviral activity against wild type HIV-1 NL4-3 in human MT2 cells assessed as inhibition of viral out growth replication in presence of 40 mg/ml human serum albumin by HIV1 infectivity assay. It counts as functional, organism-based. The following applies: Human immunodeficiency virus 1, NL4-3, MT2.

In data set [5] the test system is Human immunodeficiency virus 1. The data set is described as follows: Antiviral activity against HIV-1 NL4-3 harboring integrase A128T mutant in human MT2 cells assessed as inhibition of viral out growth replication by HIV1 infectivity assay. Type of data set: functional, organism-based. The following applies: Human immunodeficiency virus 1, NL4-3, MT2.
The nature of data set [6]: Half life in Sprague-Dawley rat at 1 mg/kg, iv. Type of data set: ADME, organism-based. The following applies: in vivo.
Data set [7] is described as follows: Cmax in Sprague-Dawley rat at 1 mg/kg, iv. The following applies: in vivo. The arrangement: route intravenous, dose 1 mg/kg. It counts as ADME, organism-based.
The nature of data set [8]: Volume of distribution at steady state in Sprague-Dawley rat at 1 mg/kg, iv. The conditions noted are these: in vivo, read-out: Vdss. Type of data set: ADME, organism-based.
Data set [9] can be described thus: Clearance in Sprague-Dawley rat at 1 mg/kg, iv. The following applies: in vivo. It counts as ADME, organism-based.
The nature of data set [10]: Metabolic stability in rat liver microsomes assessed as parent compound remaining at 0.5 uM incubated for 10 mins. The conditions noted are these: read-out: Stabilty. Type of data set: ADME, Microsome.

What is called IC50 is the concentration at which inhibition is half-maximal. Higher therefore signals weaker potency. For orientation: CC50 means the concentration that lowers cell viability or growth by half. Read a high CC50 as lower toxicity to the cells. By EC50 is commonly meant the midpoint of the concentration-response curve. In the case of `Cc1nc2cc(C(=O)NCC3CCOCC3)nn2c(-c2cc(F)c3c(c2C)CCCO3)c1[C@H](OC(C)(C)C)C(=O)O`, the IC50 in data set [1] came to 420 nM. The molecule also showed a CC50 in data set [2] greater than 40000 nM. Also, the values for the EC50 in data set [3] and in data set [4] were 608 nM and 2660 nM, respectively.

For the molecule `Cc1nc2cc(C(=O)NCc3ccc(F)cc3N3CCCC3=O)nn2c(-c2cc(F)c3c(c2C)CCCO3)c1[C@H](OC(C)(C)C)C(=O)O`, in [1], the IC50 worked out at 65 nM. Also, the CC50 in data set [2] is greater than 40000 nM. In addition, the EC50 worked out at 2600 nM in data set [3] and 9470 nM in data set [4].

Turning to `CNC(=O)c1cc(F)ccc1CNC(=O)c1cc2nc(C)c([C@H](OC(C)(C)C)C(=O)O)c(-c3cc(F)c4c(c3C)CCCO4)n2n1`, the IC50 in data set [1] is 42 nM. The molecule further yielded a CC50 in [2] greater than 40000 nM. For the same molecule, the EC50 in data set [3] is 3200 nM; in data set [4] it was greater than 20000 nM.

In turn, `Cc1nc2cc(C(=O)NCC3CCCCC3)nn2c(-c2cc(F)c3c(c2C)CCCO3)c1[C@H](OC(C)(C)C)C(=O)O` displayed a CC50 in data set [2] greater than 40000 nM. Besides, the EC50 was determined as 12 nM in data set [3] and 342 nM in [4].

For `Cc1nc2cc(C(=O)NCCN3CCOCC3)nn2c(-c2cc(F)c3c(c2C)CCCO3)c1[C@H](OC(C)(C)C)C(=O)O`, in data set [1], the IC50 amounted to 815 nM. Further, the CC50 in data set [2] is greater than 40000 nM. Further, the values for the EC50 in data set [3] and in data set [4] were 5920 nM and 11700 nM, respectively.

Turning to `Cc1nc2cc(C(=O)NCc3ccc(F)c(C4CC4)c3)nn2c(-c2cc(F)c3c(c2C)CCCO3)c1[C@H](OC(C)(C)C)C(=O)O`, in data set [1], the IC50 is 65 nM. Besides, the CC50 in data set [2] is greater than 40000 nM. Moreover, the EC50 in [3] turned out to be 14 nM; in [4] it was 361 nM.

In data set [1], `Cc1nc2cc(C(=O)NCc3ccc(F)cc3O)nn2c(-c2cc(F)c3c(c2C)CCCO3)c1[C@H](OC(C)(C)C)C(=O)O` yielded an IC50 of 67 nM. For the same molecule, the CC50 in data set [2] was greater than 40000 nM. The EC50 in [3] stood at 37 nM; in data set [4], 1520 nM.

As for `Cc1nc2cc(C(=O)NCCC(C)C)nn2c(-c2cc(F)c3c(c2C)CCCO3)c1[C@H](OC(C)(C)C)C(=O)O`, the IC50 in data set [1] amounted to 120 nM. This molecule also had a CC50 in data set [2] greater than 40000 nM. The EC50 came to 18 nM in data set [3] and 122 nM in data set [4].

In general, half-life refers to the time in which the quantity being followed falls by half. A higher half-life goes with slow loss. As a reminder, the Cmax is the peak of the concentration-time curve. As a reminder, the clearance is the rate of elimination divided by the concentration. Low values mean a low capacity for elimination, high ones a high capacity for elimination. In the case of `Cc1nc2cc(C(=O)NCCC(C)(C)C)nn2c(-c2cc(F)c3c(c2C)CCCO3)c1[C@H](OC(C)(C)C)C(=O)O`, the concentration giving a half-maximal response (EC50) in data set [5] was 75 nM; in data set [3], 13 nM; in data set [4], 105 nM. For the same molecule, the half-life in [6] is 42 min. Moreover, in data set [7], the Cmax turned out to be 79 nM. The molecule further gave an IC50 in data set [1] of 84 nM. In addition, in data set [8], the Vd worked out at 0.6 L/kg. In [2], this molecule displayed a CC50 greater than 40000 nM. This molecule had a clearance in [9] of 47 mL/min/kg. Further, in data set [10], the remaining at 10 min, 0.5 µM came out at 86%.

Take `Cc1nc2cc(-c3nc(Cc4ccc(F)cc4)no3)nn2c(-c2cc(F)c3c(c2C)CCCO3)c1[C@H](OC(C)(C)C)C(=O)O`: the half-maximal inhibitory concentration (IC50) in [1] came out at 117 nM. Further, the CC50 in [2] is greater than 20000 nM. Moreover, the EC50 in [3] amounted to 28 nM; in data set [4], 2530 nM.

Turning to `Cc1nc2cc(C(=O)NCCC3CCCCC3)nn2c(-c2cc(F)c3c(c2C)CCCO3)c1[C@H](OC(C)(C)C)C(=O)O`, the IC50 in data set [1] is 63 nM. This molecule also came in with a CC50 in data set [2] greater than 40000 nM. In addition, the EC50 was 60 nM in data set [3] and 143 nM in data set [4].

In data set [1], `Cc1nc2cc(C(=O)NCc3ccc(F)cc3S(C)(=O)=O)nn2c(-c2cc(F)c3c(c2C)CCCO3)c1[C@H](OC(C)(C)C)C(=O)O` returned a half-maximal inhibitory concentration (IC50) of 69 nM. In data set [2], this molecule showed a CC50 greater than 40000 nM. Also, the 50% effective concentration (EC50) worked out at 118 nM in data set [3] and 6570 nM in [4].

The molecule `COc1cc(F)ccc1CNC(=O)c1cc2nc(C)c([C@H](OC(C)(C)C)C(=O)O)c(-c3cc(F)c4c(c3C)CCCO4)n2n1` returned an IC50 in data set [1] of 21 nM. The CC50 in [2] is greater than 40000 nM. For the same molecule, the EC50 amounted to 53 nM in [3] and 347 nM in data set [4].

As to `Cc1nc2cc(C(=O)NCc3ccc(F)cc3-n3cncn3)nn2c(-c2cc(F)c3c(c2C)CCCO3)c1[C@H](OC(C)(C)C)C(=O)O`, the IC50 in data set [1] amounted to 21 nM. The molecule also registered a CC50 in [2] greater than 40000 nM. Further, the results for the EC50 in data set [3] and in data set [4] were 508 nM and 2600 nM, respectively.

Molecule `Cc1nc2cc(C(=O)NCc3ccc(F)cc3)nn2c(-c2cc(F)c3c(c2C)CCCO3)c1[C@H](OC(C)(C)C)C(=O)O` had an IC50 in data set [1] of 44 nM. Moreover, the CC50 in data set [2] is greater than 40000 nM. Moreover, the EC50 is 50 nM in [3] and 591 nM in data set [4].

`Cc1nc2cc(-c3ncc(Cc4ccc(F)cc4)s3)nn2c(-c2cc(F)c3c(c2C)CCCO3)c1[C@H](OC(C)(C)C)C(=O)O`: the results for the EC50 in data set [5], in [3] and in data set [4] were 59 nM, 1 nM and 34 nM, respectively. In data set [6], this molecule showed a half-life of 90 min. In data set [7], this molecule had a Cmax of 343 nM. Also, the IC50 in data set [1] is 15 nM. Further, the Vd in [8] was found to be 3.3 L/kg. Besides, the CC50 in [2] is greater than 20000 nM. The molecule further showed a clearance in data set [9] of 53 mL/min/kg. Also, the remaining at 10 min, 0.5 µM in data set [10] was found to be 100%.

For the molecule `CCCNC(=O)c1cc2nc(C)c([C@H](OC(C)(C)C)C(=O)O)c(-c3cc(F)c4c(c3C)CCCO4)n2n1`, the IC50 in [1] is 1120 nM. Further, the CC50 in data set [2] was greater than 40000 nM. Moreover, the EC50 in data set [3] was found to be 262 nM; in [4], 2340 nM.

In data set [1], `CCCc1cc(CNC(=O)c2cc3nc(C)c([C@H](OC(C)(C)C)C(=O)O)c(-c4cc(F)c5c(c4C)CCCO5)n3n2)ccc1F` showed an IC50 of 108 nM. The cytotoxic concentration (CC50) in data set [2] is greater than 20000 nM. Further, the figures for the EC50 in data set [3] and in data set [4] were 12 nM and 247 nM, respectively.

Molecule `COc1cc(CNC(=O)c2cc3nc(C)c([C@H](OC(C)(C)C)C(=O)O)c(-c4cc(F)c5c(c4C)CCCO5)n3n2)ccc1F` gave a cytotoxic concentration (CC50) in [2] greater than 20000 nM. In addition, the EC50 in [3] came out at 20 nM; in data set [4], 340 nM.

Molecule `CCc1cc(CNC(=O)c2cc3nc(C)c([C@H](OC(C)(C)C)C(=O)O)c(-c4cc(F)c5c(c4C)CCCO5)n3n2)ccc1F` returned an IC50 in [1] of 48 nM. Further, the CC50 in data set [2] was greater than 40000 nM. In addition, the EC50 is 15 nM in data set [3] and 325 nM in data set [4].

`Cc1nc2cc(C(=O)NCCC3CCOCC3)nn2c(-c2cc(F)c3c(c2C)CCCO3)c1[C@H](OC(C)(C)C)C(=O)O` showed an IC50 in data set [1] of 95 nM. Besides, the CC50 in data set [2] is greater than 40000 nM. Moreover, the EC50 in data set [3] turned out to be 173 nM; in [4], 1770 nM.

For the molecule `Cc1cc(CNC(=O)c2cc3nc(C)c([C@H](OC(C)(C)C)C(=O)O)c(-c4cc(F)c5c(c4C)CCCO5)n3n2)ccc1F`, the EC50 was determined as 35 nM in data set [5], 15 nM in [3] and 236 nM in data set [4]. Also, the half-life in data set [6] is 24 min. The molecule further registered a Cmax in [7] of 7 nM. For the same molecule, in [1], the IC50 was found to be 42 nM. Further, in data set [8], the Vd is 0.6 L/kg. For the same molecule, the CC50 in [2] is greater than 40000 nM. The molecule further came in with a clearance in [9] of 58 mL/min/kg. Also, the remaining at 10 min, 0.5 µM in data set [10] was 96%.

In [1], `Cc1nc2cc(-c3ncc(-c4ccc(F)cc4)s3)nn2c(-c2cc(F)c3c(c2C)CCCO3)c1[C@H](OC(C)(C)C)C(=O)O` registered an IC50 of 195 nM. In data set [2], this molecule returned a CC50 greater than 20000 nM. For the same molecule, the EC50 stood at 10 nM in data set [3] and 296 nM in data set [4].

For the molecule `Cc1nc2cc(-c3ncc(Cc4ccc(F)cc4)o3)nn2c(-c2cc(F)c3c(c2C)CCCO3)c1[C@H](OC(C)(C)C)C(=O)O`, the EC50 in data set [5] was determined as 56 nM; in [3], 6 nM; in [4], 324 nM. In addition, the IC50 in data set [1] was 21 nM. The same molecule returned a CC50 in data set [2] greater than 20000 nM.
